The test system of the test is CYP24 protein in HEK cells. Put plainly: CYP24 protein expression in HEK cells, Western blot with anti-CYP24 mAb and densitometric analysis. In kind it is cell-based, human. As to conditions: 10 nM. How it is done: • Human Epidermal Keratinocyte Cells (HEK) cells (CYP24 expressing cells) • Keratinocyte Growth Medium (KGM®; Cambrex) • HEK Cell Lysis Buffer (0.5 M Tris, pH 6.8, 10% SDS, glycerol, dH2O, protease inhibitor) • 1.7 ml eppendorf tubes • Isopropanol • Enhanced Chemiluminescense (ECL) Western Blotting Detection Reagants (Amersham Pharmacia) • 10 nM Calcitriol (Vitamin D) • 10 nM CTAX (Cytochroma Inc.) (“Vitamin D analog”) • 10 nM CTAY (Cytochroma Inc.) (“Vitamin D analog”) • 10 nM CTAZ (Cytochroma Inc.) (“Vitamin D analog”) • 6-well plates (i) HEK Cell Preparation Method:
125 thousand HEK cells per well were placed in 2.5 ml KGM® (2 plates) and incubated overnight @ 37° C. in 5% CO2. After 24 hours, old KGM® was replaced with fresh 2.5 ml KGM®. For 48 hour samples (Plate 1): 2.5 μl isopropanol was added to 1 well; 2.5 μl 10 μM calcitriol was added to 1 well; 2.5 μl 10 μM CTAX was added to 1 well; 2.5 μl 10 μM CTAY was added to 1 well; 2.5 μl […] was added to 1 well. […]
The effect of CYP24 protein expression in HEK cells treated with CYP24 inhibitors was investigated. […] Cell lysates were then analyzed for CYP24 protein by Western blot analysis using anti-CYP24 mAb as the primary antibody. Each sample was expressed as a relative amount of CYP24 protein compared to the control (control=1 unit).
In general terms: In western blotting, separated proteins are transferred to a membrane and probed.

Turning to `C=C1/C(=C\C=C2/CCC[C@]3(C)[C@@H]([C@H](C)CCCC(C)(C)O)CC[C@@H]23)C[C@@H](O)C[C@@H]1O` [Calcitriol], the “induction of CYP24 protein (relative to control = 1 unit)” value is, setting by setting: (24 hours) “weakly induces”; (48 hours) “weakly induces”.

The record behind these values is US7427670B2, “Cytochrome P450 24 (CYP24) monoclonal antibody and methods and uses thereof” (Cytochroma Inc., priority 2003, dated 2008).
